From PubChem BioAssay AID328 (DTP/NCI, 2004) come the findings set out here.

“And” between values parts separate entries of the source, which are not always exact repeats. Equal entries are not always repeated. Toxic doses and inconclusive results are not listed. Non-standard residues stand in square brackets, D forms with d. Residues, ends and D or L forms follow the SMILES beside them. ξ: configuration not given here. ξK = NCCCCC(N)C(=O)O

For this assay, the system named is BDF1 mice, P388 leukemia ip, median survival T/C. Put plainly: NCI In Vivo Anticancer Drug Screen. Data for tumor model P388 Leukemia (intraperitoneal) in B6D2F1 (BDF1) mice. The conditions noted are these: endpoint: median survival time, higher = longer survival. A digest of the protocol:
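Reported as T/C, where T is the survival measurement in dosed animals and C the same measurement in vehicle controls.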

Setting [1] is: dose: 50.0 mg/kg/injection, schedule: Q01DX009 (ip), vehicle: saline.
[2] abbreviates: dose: 100.0 mg/kg/injection, schedule: Q01DX009 (ip), vehicle: saline.

In the case of `CC(=N\[O-])/C(C)=N/O.CC(=N\[O-])/C(C)=N/O.CCCN.[Cl-].[Cl-].[Rh+3]`, the T/C (dose: 6.25 mg/kg/injection, schedule: Q01DX009 (ip), vehicle: saline) was 98 % of control; the T/C (dose: 12.5 mg/kg/injection, schedule: Q01DX009 (ip), vehicle: saline) was 110 % of control; the T/C under setting [1] is 89 % of control; the T/C under setting [2] is 94 % of control; the T/C (dose: 200.0 mg/kg/injection, schedule: Q01DX009 (ip), vehicle: saline) is 110 % of control.
Regarding `C=CCN(CC=C)c1ccc(N(CC)CC)cc1`, the T/C is, setting by setting: (dose: 100.0 mg/kg/injection, schedule: Q01DX001 (ip), vehicle: Klucel (hydroxypropylcellulose) (HPC)) 87 % of control; (dose: 200.0 mg/kg/injection, schedule: Q01DX001 (ip), vehicle: Klucel (hydroxypropylcellulose) (HPC)) 95 % of control; (dose: 400.0 mg/kg/injection, schedule: Q01DX001 (ip), vehicle: Klucel (hydroxypropylcellulose) (HPC)) 100 % of control.
For `CC[C@H]1CN2CCc3cc(OC)c(OC)cc3[C@@H]2C[C@@H]1C[C@H]1NCCc2cc(OC)c(OC)cc21`, the T/C by setting is: (dose: 2.0 mg/kg/injection, schedule: Q01DX005 (ip), vehicle: saline) 150 % of control; (dose: 2.0 mg/kg/injection, schedule: Q01DX009 (ip), vehicle: saline) 150 % of control; (dose: 3.0 mg/kg/injection, schedule: Q01DX009 (oral), vehicle: saline) 90 % of control; (dose: 3.5 mg/kg/injection, schedule: Q01DX010 (ip), vehicle: saline) 154 % of control and 160 % of control; (dose: 4.0 mg/kg/injection, schedule: Q01DX005 (ip), vehicle: saline) 175 % of control; (dose: 4.0 mg/kg/injection, schedule: Q01DX009 (ip), vehicle: saline) 220 % of control. In addition, the T/C by setting is: (dose: 4.0 mg/kg/injection, schedule: Q04DX003 (ip), vehicle: saline) 103 % of control; (dose: 4.0 mg/kg/injection, schedule: Q## X003 (ip), vehicle: saline) 115 % of control; (dose: 6.0 mg/kg/injection, schedule: Q01DX009 (oral), vehicle: saline) 86 % of control; (dose: 7.0 mg/kg/injection, schedule: Q01DX010 (ip), vehicle: saline) 222 % of control; (dose: 7.78 mg/kg/injection, schedule: Q04DX003 (ip), vehicle: saline) 160 % of control; (dose: 8.0 mg/kg/injection, schedule: Q01DX005 (ip), vehicle: saline) 90 % of control. The T/C is, setting by setting: (dose: 8.0 mg/kg/injection, schedule: Q04DX003 (ip), vehicle: saline) 163 % of control; (dose: 8.0 mg/kg/injection, schedule: Q## X002 (ip), vehicle: saline) 115 % of control; (dose: 8.0 mg/kg/injection, schedule: Q## X003 (ip), vehicle: saline) 150 % of control; (dose: 13.0 mg/kg/injection, schedule: Q04DX003 (ip), vehicle: saline) 151 % of control and 158 % of control and 192 % of control; (dose: 16.0 mg/kg/injection, schedule: Q04DX003 (ip), vehicle: saline) 232 % of control; (dose: 16.0 mg/kg/injection, schedule: Q## X002 (ip), vehicle: saline) 165 % of control. Further, the T/C by setting is: (dose: 16.0 mg/kg/injection, schedule: Q## X003 (ip), vehicle: saline) 185 % of control; (dose: 16.0 mg/kg/injection, schedule: Q## X008 (ip), vehicle: saline) 160 % of control; (dose: 16.0 mg/kg/injection, schedule: Q## X016 (ip), vehicle: saline) 165 % of control; (dose: 16.0 mg/kg/injection, schedule: Q## X024 (ip), vehicle: saline) 215 % of control; (dose: 18.0 mg/kg/injection, schedule: Q04DX003 (ip), vehicle: saline) 185 % of control; (dose: 21.6 mg/kg/injection, schedule: Q04DX003 (ip), vehicle: saline) 225 % of control and 235 % of control and 239 % of control. The T/C by setting is: (dose: 32.0 mg/kg/injection, schedule: Q01DX001 (ip), vehicle: saline) 150 % of control; (dose: 32.0 mg/kg/injection, schedule: Q## X002 (ip), vehicle: saline) 210 % of control; (dose: 32.0 mg/kg/injection, schedule: Q## X003 (ip), vehicle: saline) 90 % of control; (dose: 32.0 mg/kg/injection, schedule: Q## X016 (ip), vehicle: saline) 150 % of control.
For `Cn1c([N+](=O)[O-])cnc1/C=N/N1CCN(/N=C/c2ncc([N+](=O)[O-])n2C)CC1`, the T/C was 101 % of control (dose: 50.0 mg/kg/injection, schedule: Q01DX009 (ip), vehicle: saline with Tween-80); 113 % of control (dose: 100.0 mg/kg/injection, schedule: Q01DX009 (ip), vehicle: saline with Tween-80); 94 % of control (dose: 200.0 mg/kg/injection, schedule: Q01DX009 (ip), vehicle: saline with Tween-80).
Turning to `NCCCCC(N)C(=O)NCC(=O)O` (stereo not drawn) (H-[ξK]-Gly-OH), the T/C runs as follows: (dose: 50.0 mg/kg/injection, schedule: Q01DX005 (ip), vehicle: saline) 95 % of control; (dose: 100.0 mg/kg/injection, schedule: Q01DX005 (ip), vehicle: saline) 102 % of control; (dose: 200.0 mg/kg/injection, schedule: Q01DX005 (ip), vehicle: saline) 88 % of control.
Turning to `CCC(=O)OCC1OC(n2cnc3c(=S)nc(N)[nH]c32)C(OC(=O)CC)C1OC(=O)CC` (stereo not drawn), the T/C is 103 % of control (dose: 12.5 mg/kg/injection, schedule: Q04DX003 (ip), vehicle: Klucel (hydroxypropylcellulose) (HPC)); 118 % of control (dose: 16.0 mg/kg/injection, schedule: Q04DX003 (ip), vehicle: Klucel (hydroxypropylcellulose) (HPC)); 115 % of control (dose: 25.0 mg/kg/injection, schedule: Q01DX009 (ip), vehicle: Klucel (hydroxypropylcellulose) (HPC)); 173 % of control (dose: 25.0 mg/kg/injection, schedule: Q04DX003 (ip), vehicle: Klucel (hydroxypropylcellulose) (HPC)); 100 % of control (dose: 50.0 mg/kg/injection, schedule: Q01DX009 (ip), vehicle: Klucel (hydroxypropylcellulose) (HPC)); 122 % of control (dose: 100.0 mg/kg/injection, schedule: Q04DX003 (ip), vehicle: Klucel (hydroxypropylcellulose) (HPC)).
For `COc1cc(C(=O)OC2c3ccccc3CCC2N(C)C)cc(OC)c1OC` (stereo not drawn), the T/C by setting is: (dose: 25.0 mg/kg/injection, schedule: Q01DX009 (ip), vehicle: saline) 102 % of control; under setting [1], 103 % of control and 107 % of control; under setting [2], 102 % of control.
With `Cc1cnc(Cl)nc1Sc1nc(N)nc2nc[nH]c12`, the T/C was 184 % of control (dose: 6.0 mg/kg/injection, schedule: Q01DX009 (ip), vehicle: saline with Tween-80); 118 % of control (dose: 33.0 mg/kg/injection, schedule: Q04DX003 (ip), vehicle: saline with Tween-80); 122 % of control (dose: 50.0 mg/kg/injection, schedule: Q04DX003 (ip), vehicle: saline with Tween-80); 109 % of control (dose: 75.0 mg/kg/injection, schedule: Q04DX003 (ip), vehicle: saline with Tween-80); 100 % of control (dose: 100.0 mg/kg/injection, schedule: Q04DX003 (ip), vehicle: saline with Tween-80).
For the compound `CCCCCCC(=O)CCCCCCCCCCCCC(=O)OC`, the T/C is 90 % of control (dose: 1.56 mg/kg/injection, schedule: Q01DX009 (ip), vehicle: saline with Tween-80); 100 % of control (dose: 3.13 mg/kg/injection, schedule: Q01DX009 (ip), vehicle: saline with Tween-80); 95 % of control (dose: 6.25 mg/kg/injection, schedule: Q01DX009 (ip), vehicle: saline with Tween-80).
In the case of `COc1cc([C@@H]2c3cc4c(cc3C[C@H]3COC(=O)[C@@H]32)OCO4)cc(OC)c1OC`, the T/C is 109 % of control (dose: 1.25 mg/kg/injection, schedule: Q01DX010 (ip), vehicle: saline); 105 % of control (dose: 2.5 mg/kg/injection, schedule: Q01DX001 (ip), vehicle: other); 118 % of control (dose: 2.5 mg/kg/injection, schedule: Q01DX010 (ip), vehicle: saline); 115 % of control (dose: 5.0 mg/kg/injection, schedule: Q01DX001 (ip), vehicle: other); 154 % of control (dose: 10.0 mg/kg/injection, schedule: Q01DX010 (ip), vehicle: other); 95 % of control (dose: 20.0 mg/kg/injection, schedule: Q01DX010 (ip), vehicle: other).
For `CCCCCCCCCCNCCS`, the T/C reads like this: (dose: 8.0 mg/kg/injection, schedule: Q01DX010 (ip), vehicle: carboxymethylcellulose (CMC)) 105 % of control; (dose: 16.0 mg/kg/injection, schedule: Q01DX010 (ip), vehicle: carboxymethylcellulose (CMC)) 110 % of control; (dose: 32.0 mg/kg/injection, schedule: Q01DX010 (ip), vehicle: carboxymethylcellulose (CMC)) 105 % of control.
